Consider three compounds from patent US20250320226.

Like-named read-outs stand apart in the source and are kept apart here.

For the compound `C[C@H]1CCCCC[C@](O)(C(F)(F)F)C(=O)NNC(=O)c2nc(c(C(F)(F)F)cc2NC(=O)OC(C)(C)C)O1`, for the setting “from C[C@@H](CCCCC[C@@](O)(C(=O)O)C(F)(F)F)Oc1nc(C(=O)NN)c(NC(=O)OC(C)(C)C)cc1C(F)(F)F, amide bond, 15-membered ring, HATU/DIEA, DMF (DIEA added in 2-MeTHF), 21.9 mM”, the ring closure, isolated yield was found to be 15%.

As to `C[C@@H]1C/C=C\CCC(OCc2ccccc2)(C(F)(F)F)C2=NN=C(O2)c2nc(c(C(F)(F)F)cc2NC(=O)OC(C)(C)C)O1` (stereo partly drawn), the ring closure, isolated yield (from C[C@H](CC[P+](c1ccccc1)(c1ccccc1)c1ccccc1)Oc1nc(-c2nnc(C(CCC=O)(OCc3ccccc3)C(F)(F)F)o2)c(N(C(=O)OC(C)(C)C)C(=O)OC(C)(C)C)cc1C(F)(F)F, other bond, 14-membered ring, NaOtBu, THF, 11.2 mM) was 50%.

Take “tert-Butyl ((4R,10R)-10-(benzyloxy)-4-methyl-25,10-bis(trifluoromethyl)-3-oxa-1(2,5)-oxadiazola-2(2,6)-pyridinacyclodecaphane-23-yl)carbamate”: where the note is “ether bond, 14-membered ring, PPh3/DIAD, toluene, 30.2 mM”, the ring closure, isolated yield worked out at 52%.
